# Data from patent publication US10670605B2, “Cysteine reactive probes and uses thereof” (The Scripps Research Institute, priority 2015, dated 2020).
# Tests used:
# [1] = target: T1, cysteines in MDA-MB-231 and Ramos cells (Homo sapiens, UniProt P24468); experiment: Competitive isoTOP-ABPP in situ (fragment-treated cells); format: cell-based
# T1 sequence (P24468 1-414): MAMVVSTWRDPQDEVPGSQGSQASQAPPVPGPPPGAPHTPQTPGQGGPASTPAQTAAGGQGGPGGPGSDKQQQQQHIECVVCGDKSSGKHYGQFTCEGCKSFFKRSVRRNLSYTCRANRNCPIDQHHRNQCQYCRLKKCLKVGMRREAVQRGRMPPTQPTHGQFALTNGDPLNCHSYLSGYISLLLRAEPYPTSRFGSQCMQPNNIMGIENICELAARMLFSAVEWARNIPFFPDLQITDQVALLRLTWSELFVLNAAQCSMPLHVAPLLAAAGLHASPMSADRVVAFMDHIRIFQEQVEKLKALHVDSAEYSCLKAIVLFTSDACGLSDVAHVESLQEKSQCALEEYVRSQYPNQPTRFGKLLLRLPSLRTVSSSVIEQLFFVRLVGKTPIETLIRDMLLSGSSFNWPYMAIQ
# [2] = target: cysteines in MDA-MB-231 and Ramos cells (Homo sapiens, UniProt P27707); experiment: as above; format: cell-based
# [3] = target: cysteines in MDA-MB-231 and Ramos cells (Homo sapiens, UniProt P52948); experiment: as above; format: cell-based; details: 200 μM, insitu, 231
# [4] = target: cysteines in MDA-MB-231 and Ramos cells (Homo sapiens, UniProt P68366); experiment: as above; format: cell-based
# [5] = target: cysteines in MDA-MB-231 and Ramos cells (Homo sapiens, UniProt Q14137); experiment: as above; format: cell-based; details: 200 μM, insitu
# [6] = target: cysteines in MDA-MB-231 and Ramos cells (Homo sapiens, UniProt Q14790); experiment: as above; format: cell-based; details: 200 μM, insitu
# [7] = target: T2, cysteines in MDA-MB-231 and Ramos cells (Homo sapiens, UniProt Q96EB1); experiment: as above; format: cell-based; details: 200 μM, insitu
# T2 sequence (Q96EB1 1-424): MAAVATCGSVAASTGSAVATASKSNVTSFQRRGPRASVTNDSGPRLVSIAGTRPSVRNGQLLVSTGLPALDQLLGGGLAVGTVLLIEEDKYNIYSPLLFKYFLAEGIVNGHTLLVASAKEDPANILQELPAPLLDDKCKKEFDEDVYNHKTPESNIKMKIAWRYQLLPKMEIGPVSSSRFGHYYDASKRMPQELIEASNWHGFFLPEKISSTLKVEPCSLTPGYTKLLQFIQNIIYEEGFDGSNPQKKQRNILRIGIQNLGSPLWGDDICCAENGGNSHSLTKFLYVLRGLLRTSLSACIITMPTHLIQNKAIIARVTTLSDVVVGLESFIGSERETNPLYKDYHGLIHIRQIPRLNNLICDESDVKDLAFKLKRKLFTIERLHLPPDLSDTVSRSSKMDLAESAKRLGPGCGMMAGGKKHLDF
# O00541_C272 = O00541_C272 (Homo sapiens, UniProt O00541); experiment: Competitive isoTOP-ABPP, cell lysates; format: binding
# O114933_C98 = O114933_C98 (Homo sapiens, UniProt O14933); experiment: Competitive isoTOP-ABPP, cell lysates; format: binding; details: 500 μm
# [8] = target: cysteines in MDA-MB-231 and Ramos cells (Homo sapiens, UniProt Q9UJW0); experiment: Competitive isoTOP-ABPP in situ (fragment-treated cells); format: cell-based
# [9] = target: T3, cysteines in MDA-MB-231 and Ramos cells (Homo sapiens, UniProt O75439); experiment: as above; format: cell-based
# T3 sequence (O75439 44-489): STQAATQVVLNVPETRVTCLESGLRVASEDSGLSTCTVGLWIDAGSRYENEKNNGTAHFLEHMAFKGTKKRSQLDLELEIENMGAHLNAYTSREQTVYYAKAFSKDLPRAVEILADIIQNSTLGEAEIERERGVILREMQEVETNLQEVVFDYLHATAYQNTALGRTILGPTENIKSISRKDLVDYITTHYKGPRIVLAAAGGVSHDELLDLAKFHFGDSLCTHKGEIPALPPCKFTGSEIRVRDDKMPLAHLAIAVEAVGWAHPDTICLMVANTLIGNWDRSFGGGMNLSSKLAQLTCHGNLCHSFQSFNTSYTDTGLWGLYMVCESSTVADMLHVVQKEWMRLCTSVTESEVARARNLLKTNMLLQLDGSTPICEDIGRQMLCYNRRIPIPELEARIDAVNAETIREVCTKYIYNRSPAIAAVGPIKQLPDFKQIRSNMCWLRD
# [10] = target: T4, cysteines in MDA-MB-231 and Ramos cells (Homo sapiens, UniProt Q9Y5Y2); experiment: as above; format: cell-based
# T4 sequence (Q9Y5Y2 1-271): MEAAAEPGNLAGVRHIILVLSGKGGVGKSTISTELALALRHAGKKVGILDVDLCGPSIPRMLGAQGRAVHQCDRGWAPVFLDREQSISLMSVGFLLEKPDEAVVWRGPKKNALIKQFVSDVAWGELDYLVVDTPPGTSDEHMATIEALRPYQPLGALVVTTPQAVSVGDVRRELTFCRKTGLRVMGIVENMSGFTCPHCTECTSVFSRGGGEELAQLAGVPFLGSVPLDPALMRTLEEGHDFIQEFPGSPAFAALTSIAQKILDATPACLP
# [11] = target: T5, cysteines in MDA-MB-231 and Ramos cells (Homo sapiens, UniProt Q9NPH0); experiment: as above; format: cell-based; details: 200 μM, insitu
# T5 sequence (Q9NPH0 33-428): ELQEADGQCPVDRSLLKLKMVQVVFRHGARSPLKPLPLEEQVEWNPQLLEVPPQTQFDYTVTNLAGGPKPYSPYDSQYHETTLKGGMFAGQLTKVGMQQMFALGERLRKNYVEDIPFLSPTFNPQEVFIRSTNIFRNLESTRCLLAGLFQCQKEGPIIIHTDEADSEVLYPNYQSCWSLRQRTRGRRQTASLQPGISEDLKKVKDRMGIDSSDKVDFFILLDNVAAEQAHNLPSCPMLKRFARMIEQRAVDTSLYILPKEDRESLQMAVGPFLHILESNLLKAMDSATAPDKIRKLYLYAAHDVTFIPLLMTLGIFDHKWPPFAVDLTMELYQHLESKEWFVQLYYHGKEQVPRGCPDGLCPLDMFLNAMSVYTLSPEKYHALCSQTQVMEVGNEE
# Sequence of cysteines in MDA-MB-231 and Ramos cells (Homo sapiens, UniProt Q14790) (Q14790 217-479): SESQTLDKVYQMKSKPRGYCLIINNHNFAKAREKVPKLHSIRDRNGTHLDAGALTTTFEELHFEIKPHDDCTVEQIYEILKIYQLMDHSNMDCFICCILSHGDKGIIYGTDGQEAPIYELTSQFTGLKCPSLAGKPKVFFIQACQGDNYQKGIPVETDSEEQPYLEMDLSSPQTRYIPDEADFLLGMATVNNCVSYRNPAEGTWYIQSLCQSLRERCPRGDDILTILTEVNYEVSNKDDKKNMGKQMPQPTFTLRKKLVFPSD
# Sequence of cysteines in MDA-MB-231 and Ramos cells (Homo sapiens, UniProt Q9UJW0) (Q9UJW0 whole entry, the tested form may be a part): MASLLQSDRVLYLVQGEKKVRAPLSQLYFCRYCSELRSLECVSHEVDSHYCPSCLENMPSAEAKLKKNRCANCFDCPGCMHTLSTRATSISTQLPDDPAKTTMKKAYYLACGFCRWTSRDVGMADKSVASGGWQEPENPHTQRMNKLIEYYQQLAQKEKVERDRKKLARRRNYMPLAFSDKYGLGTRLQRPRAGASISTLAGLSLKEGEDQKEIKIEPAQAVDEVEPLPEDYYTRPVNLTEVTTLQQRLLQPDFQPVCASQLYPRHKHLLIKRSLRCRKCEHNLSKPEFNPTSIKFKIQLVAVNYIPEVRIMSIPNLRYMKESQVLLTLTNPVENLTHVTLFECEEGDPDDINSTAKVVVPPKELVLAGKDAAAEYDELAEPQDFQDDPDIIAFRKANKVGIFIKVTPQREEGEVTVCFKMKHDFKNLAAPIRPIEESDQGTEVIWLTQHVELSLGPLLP
# Sequence of cysteines in MDA-MB-231 and Ramos cells (Homo sapiens, UniProt P68366) (P68366 whole entry): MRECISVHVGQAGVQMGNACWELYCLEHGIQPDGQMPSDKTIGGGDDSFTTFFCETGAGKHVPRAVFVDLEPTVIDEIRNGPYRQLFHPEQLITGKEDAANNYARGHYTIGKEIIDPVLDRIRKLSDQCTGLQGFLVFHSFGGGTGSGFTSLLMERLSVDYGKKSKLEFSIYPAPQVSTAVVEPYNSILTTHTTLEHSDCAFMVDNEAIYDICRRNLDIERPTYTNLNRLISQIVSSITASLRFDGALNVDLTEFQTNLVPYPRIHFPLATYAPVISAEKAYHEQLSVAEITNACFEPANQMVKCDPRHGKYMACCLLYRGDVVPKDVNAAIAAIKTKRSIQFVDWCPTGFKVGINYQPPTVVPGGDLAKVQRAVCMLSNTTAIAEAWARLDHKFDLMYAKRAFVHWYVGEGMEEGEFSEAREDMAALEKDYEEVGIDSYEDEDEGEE
# Sequence of cysteines in MDA-MB-231 and Ramos cells (Homo sapiens, UniProt Q14137) (Q14137 whole entry): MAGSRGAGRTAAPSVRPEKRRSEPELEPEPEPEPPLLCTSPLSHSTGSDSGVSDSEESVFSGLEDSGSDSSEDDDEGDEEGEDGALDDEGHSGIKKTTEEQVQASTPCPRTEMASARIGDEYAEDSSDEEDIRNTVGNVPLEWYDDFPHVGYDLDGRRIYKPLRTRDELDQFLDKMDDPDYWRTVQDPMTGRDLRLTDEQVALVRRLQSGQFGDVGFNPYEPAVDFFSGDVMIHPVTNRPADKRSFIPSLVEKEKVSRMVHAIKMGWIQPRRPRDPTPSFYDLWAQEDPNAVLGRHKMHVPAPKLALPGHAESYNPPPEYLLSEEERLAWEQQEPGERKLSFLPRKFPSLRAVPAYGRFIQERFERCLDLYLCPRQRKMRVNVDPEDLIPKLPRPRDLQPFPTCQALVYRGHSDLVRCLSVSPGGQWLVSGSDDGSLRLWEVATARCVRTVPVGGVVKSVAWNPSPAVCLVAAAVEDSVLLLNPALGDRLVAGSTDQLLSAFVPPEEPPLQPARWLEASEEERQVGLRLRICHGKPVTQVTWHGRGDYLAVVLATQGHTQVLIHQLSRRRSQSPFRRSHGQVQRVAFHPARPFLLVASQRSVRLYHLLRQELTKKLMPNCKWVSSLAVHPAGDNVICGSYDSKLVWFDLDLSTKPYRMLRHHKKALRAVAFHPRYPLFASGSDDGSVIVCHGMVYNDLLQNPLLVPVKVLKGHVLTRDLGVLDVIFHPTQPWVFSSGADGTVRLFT
# Sequence of O00541_C272 (O00541 whole entry, looked up): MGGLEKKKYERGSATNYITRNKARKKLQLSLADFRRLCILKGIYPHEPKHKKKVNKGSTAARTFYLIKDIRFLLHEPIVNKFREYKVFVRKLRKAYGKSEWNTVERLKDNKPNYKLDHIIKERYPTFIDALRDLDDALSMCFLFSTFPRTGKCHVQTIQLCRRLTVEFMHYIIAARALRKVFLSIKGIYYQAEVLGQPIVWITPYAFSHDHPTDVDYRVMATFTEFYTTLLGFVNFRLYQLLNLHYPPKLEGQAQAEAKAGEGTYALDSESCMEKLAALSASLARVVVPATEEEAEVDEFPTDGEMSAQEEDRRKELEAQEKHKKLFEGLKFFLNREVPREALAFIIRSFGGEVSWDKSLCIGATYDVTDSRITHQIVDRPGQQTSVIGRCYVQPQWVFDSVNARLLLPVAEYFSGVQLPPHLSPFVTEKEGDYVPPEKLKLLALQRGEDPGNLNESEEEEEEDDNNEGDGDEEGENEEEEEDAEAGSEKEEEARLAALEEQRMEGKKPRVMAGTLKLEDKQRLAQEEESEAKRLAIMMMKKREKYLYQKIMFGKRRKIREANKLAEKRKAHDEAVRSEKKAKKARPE
# Sequence of cysteines in MDA-MB-231 and Ramos cells (Homo sapiens, UniProt P27707) (P27707 whole entry): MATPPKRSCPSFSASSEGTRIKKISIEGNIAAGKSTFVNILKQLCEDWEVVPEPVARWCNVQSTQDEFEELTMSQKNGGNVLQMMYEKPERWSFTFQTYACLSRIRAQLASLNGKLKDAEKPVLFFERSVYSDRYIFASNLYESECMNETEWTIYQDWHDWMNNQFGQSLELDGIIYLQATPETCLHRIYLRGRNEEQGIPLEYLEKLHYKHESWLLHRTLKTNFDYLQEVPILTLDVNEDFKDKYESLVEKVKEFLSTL
# Sequence of O114933_C98 (O14933 whole entry, the tested form may be a part): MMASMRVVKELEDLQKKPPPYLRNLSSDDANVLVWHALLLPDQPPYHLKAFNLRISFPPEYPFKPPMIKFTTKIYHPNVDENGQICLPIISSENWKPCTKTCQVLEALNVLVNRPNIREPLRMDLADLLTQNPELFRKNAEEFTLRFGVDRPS
# Sequence of cysteines in MDA-MB-231 and Ramos cells (Homo sapiens, UniProt P52948) (P52948 whole entry): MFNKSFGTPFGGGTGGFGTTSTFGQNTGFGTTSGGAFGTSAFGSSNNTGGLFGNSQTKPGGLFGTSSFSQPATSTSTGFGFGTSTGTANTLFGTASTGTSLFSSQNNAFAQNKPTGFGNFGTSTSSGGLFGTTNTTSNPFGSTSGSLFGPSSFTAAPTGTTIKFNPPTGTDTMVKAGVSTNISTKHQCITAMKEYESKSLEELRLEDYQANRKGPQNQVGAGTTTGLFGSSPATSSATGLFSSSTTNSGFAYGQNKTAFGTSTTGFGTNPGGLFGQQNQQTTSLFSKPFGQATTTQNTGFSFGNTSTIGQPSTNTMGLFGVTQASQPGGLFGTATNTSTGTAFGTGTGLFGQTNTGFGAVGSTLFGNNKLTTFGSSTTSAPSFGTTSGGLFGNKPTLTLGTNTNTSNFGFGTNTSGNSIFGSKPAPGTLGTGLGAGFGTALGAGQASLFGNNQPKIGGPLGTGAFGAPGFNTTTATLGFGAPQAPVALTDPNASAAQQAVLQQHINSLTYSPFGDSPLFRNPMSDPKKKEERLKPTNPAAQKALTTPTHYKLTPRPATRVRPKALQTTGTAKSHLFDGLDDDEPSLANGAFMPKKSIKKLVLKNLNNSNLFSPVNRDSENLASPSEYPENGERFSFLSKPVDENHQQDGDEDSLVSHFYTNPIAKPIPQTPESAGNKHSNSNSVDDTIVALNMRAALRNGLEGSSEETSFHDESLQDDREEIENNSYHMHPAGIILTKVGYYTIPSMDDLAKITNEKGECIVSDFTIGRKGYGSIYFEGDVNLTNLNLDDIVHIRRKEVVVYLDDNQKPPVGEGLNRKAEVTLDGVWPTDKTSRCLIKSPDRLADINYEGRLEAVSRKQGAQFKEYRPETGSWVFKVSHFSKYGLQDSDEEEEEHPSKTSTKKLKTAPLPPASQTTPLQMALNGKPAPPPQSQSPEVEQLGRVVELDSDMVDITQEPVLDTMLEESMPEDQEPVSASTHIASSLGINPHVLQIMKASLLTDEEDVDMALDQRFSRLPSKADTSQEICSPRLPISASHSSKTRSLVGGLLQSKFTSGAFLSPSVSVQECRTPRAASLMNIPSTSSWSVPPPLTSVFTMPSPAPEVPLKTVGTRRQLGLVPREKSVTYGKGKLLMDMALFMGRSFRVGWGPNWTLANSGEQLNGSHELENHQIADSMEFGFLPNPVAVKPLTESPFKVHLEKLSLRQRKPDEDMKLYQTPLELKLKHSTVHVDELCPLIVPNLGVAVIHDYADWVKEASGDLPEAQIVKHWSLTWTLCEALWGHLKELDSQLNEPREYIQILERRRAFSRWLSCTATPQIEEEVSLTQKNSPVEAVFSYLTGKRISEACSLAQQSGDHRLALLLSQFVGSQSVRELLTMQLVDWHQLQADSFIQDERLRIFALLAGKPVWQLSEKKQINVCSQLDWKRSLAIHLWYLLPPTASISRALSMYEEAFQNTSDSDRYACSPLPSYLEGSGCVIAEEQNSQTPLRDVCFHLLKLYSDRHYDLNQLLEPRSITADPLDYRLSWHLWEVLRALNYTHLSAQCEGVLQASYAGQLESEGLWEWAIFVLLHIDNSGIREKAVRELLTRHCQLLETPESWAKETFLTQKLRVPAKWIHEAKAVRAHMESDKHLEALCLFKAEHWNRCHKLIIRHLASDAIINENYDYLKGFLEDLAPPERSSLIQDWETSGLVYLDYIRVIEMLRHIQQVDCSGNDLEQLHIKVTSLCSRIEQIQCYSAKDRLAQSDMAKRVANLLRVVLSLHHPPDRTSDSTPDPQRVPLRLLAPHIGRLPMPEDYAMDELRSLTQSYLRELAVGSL
smiles,measurement,setting,value
O=C(CCl)NC12CC3CC(CC(C3)C1)C2 [compound 21],"isoTOP-ABPP ratio, cysteine P24468_C326","[1]; 200 μM, insitu, 231",1.1
same,isoTOP-ABPP ratio P27707_C9,"[2]; 200 μM, insitu, 231",1.3
same,"isoTOP-ABPP ratio, cysteine P52948_C1312",[3],1.1
same,isoTOP-ABPP ratio P68366_C54,"[4]; 200 μM, insitu, 231",0.8
same,"isoTOP-ABPP ratio, cysteine Q14137_C404",[5]; 231,1.1
same,isoTOP-ABPP ratio Q14790_C360,[6]; 231,0.9
same,"isoTOP-ABPP ratio, cysteine Q96EB1_C218",[7]; 231,0.7
same,"isoTOP-ABPP ratio (reactivity profile), O00541_C272",O00541_C272; 500 μm in-vitro ramos,5.5
C=CC(=O)N1CCC(Cc2ccccc2)CC1 [compound 53],"isoTOP-ABPP reactivity profile ratio, O114933_C98",O114933_C98; in-vitro_ramos,1.0
O=C(CCl)Nc1cccc2ncccc12 [compound 51],isoTOP-ABPP ratio Q9UJW0_C258,"[8]; 200 μM, insitu, 231",1.1
Cn1cc(S(=O)(=O)N2CCOCC2)cc1C(=O)NC(=O)CCl [compound 11],"isoTOP-ABPP ratio, cysteine O75439_C265",[9]; 100 μM in situ 231,1.0
same,"isoTOP-ABPP ratio, cysteine P24468_C326",[1]; 100 μM in situ 231,0.9
same,isoTOP-ABPP ratio P27707_C9,[2]; 100 μM in situ 231,0.5
same,isoTOP-ABPP ratio P68366_C54,[4]; 100 μM in situ 231,0.3
same,isoTOP-ABPP ratio Q9UJW0_C258,[8]; 100 μM in situ 231,20.0
same,"isoTOP-ABPP ratio, cysteine Q9Y5Y2_C72",[10]; 100 μM in situ 231,0.5
CC1CCc2ccccc2N1C(=O)CCl (stereo not shown) [compound 45],isoTOP-ABPP ratio P24468_C326,"[1]; 200 μM, insitu, 231",20.0
same,isoTOP-ABPP ratio Q14790_C360,[6]; 231,20.0
same,isoTOP-ABPP ratio Q96EB1_C218,[7]; 231,20.0
same,isoTOP-ABPP ratio Q9NPH0_C267,[11]; 231,20.0
same,isoTOP-ABPP ratio Q9UJW0_C258,"[8]; 200 μM, insitu, 231",2.7
COc1ccc2c(c1)CCCN2C(=O)CCl [compound 2],isoTOP-ABPP reactivity P24468_C326 NR2F2,"[1]; 200 μM, insitu, 231",20.0
same,isoTOP-ABPP reactivity P68366_C54 TUBA4A,"[4]; 200 μM, insitu, 231",9.7
same,isoTOP-ABPP reactivity Q14137_C404 BOP1,[5]; 231,20.0
same,isoTOP-ABPP reactivity Q14790_C360 CASP8,[6]; 231,20.0
same,isoTOP-ABPP reactivity Q9UJW0_C258 DCTN4,"[8]; 200 μM, insitu, 231",4.0
same,isoTOP-ABPP reactivity Q9Y5Y2_C72 NUBP2,"[10]; 200 μM, insitu, 231",5.3
COc1cc2c(cc1OC)CN(C(=O)CCl)CC2 [compound 8],isoTOP-ABPP reactivity P24468_C326 NR2F2,"[1]; 200 μM, insitu, 231",20.0
same,isoTOP-ABPP reactivity P68366_C54 TUBA4A,"[4]; 200 μM, insitu, 231",0.9
same,isoTOP-ABPP reactivity Q9NPH0_C267 ACP6,[11]; 231,20.0
same,isoTOP-ABPP reactivity Q9UJW0_C258 DCTN4,"[8]; 200 μM, insitu, 231",20.0
N#C/C(=C\c1cc(C(F)(F)F)cc(C(F)(F)F)c1)C(N)=O [compound 23],"isoTOP-ABPP ratio (reactivity profile), O00541_C272",O00541_C272; 500 μm in-vitro ramos,2.0
O=C(CCl)NC1C(O)OC(CO)C(O)C1O (mixture of isomers) [compound 44],"isoTOP-ABPP reactivity profile ratio, O114933_C98",O114933_C98; in-vitro_ramos_231,2.0
O=C(CCl)N1CCN(S(=O)(=O)c2ccccc2F)CC1 [compound 10],"isoTOP-ABPP ratio, cysteine O75439_C265","[9]; 200 μM, insitu, ramos",2.1
same,"isoTOP-ABPP ratio, cysteine P24468_C326","[1]; 200 μM, insitu, 231",20.0
same,isoTOP-ABPP ratio P27707_C9,"[2]; 200 μM, insitu, 231",1.9
same,isoTOP-ABPP ratio P27707_C9,"[2]; 200 μM, insitu, ramos",1.7
same,"isoTOP-ABPP ratio, cysteine P52948_C1312",[3],20.0
same,isoTOP-ABPP ratio P68366_C54,"[4]; 200 μM, insitu, 231",7.9
same,isoTOP-ABPP ratio P68366_C54,"[4]; 200 μM, insitu, ramos",2.8
same,"isoTOP-ABPP ratio, cysteine Q14137_C404",[5]; 231,20.0
same,isoTOP-ABPP ratio Q14790_C360,[6]; ramos,5.8
same,"isoTOP-ABPP ratio, cysteine Q96EB1_C218",[7]; 231,1.1
same,"isoTOP-ABPP ratio, cysteine Q9NPH0_C267",[11]; 231,13.4
same,isoTOP-ABPP ratio Q9UJW0_C258,"[8]; 200 μM, insitu, 231",20.0
same,isoTOP-ABPP ratio Q9UJW0_C258,"[8]; 200 μM, insitu, ramos",20.0
same,"isoTOP-ABPP ratio, cysteine Q9Y5Y2_C72","[10]; 200 μM, insitu, 231",1.3
O=C(CCl)N1CCN(CC(=O)N2CCOCC2)CC1 [compound 29],isoTOP-ABPP ratio P27707_C9,"[2]; 200 μM, insitu, ramos",1.2
same,isoTOP-ABPP ratio P68366_C54,"[4]; 200 μM, insitu, ramos",1.0
same,isoTOP-ABPP ratio Q14137_C404,[5]; ramos,1.5
same,isoTOP-ABPP ratio Q14790_C360,[6]; ramos,1.6
same,isoTOP-ABPP ratio Q96EB1_C218,[7]; ramos,1.1
same,isoTOP-ABPP ratio Q9NPH0_C267,[11]; ramos,2.1
same,isoTOP-ABPP ratio Q9UJW0_C258,"[8]; 200 μM, insitu, ramos",20.0
same,isoTOP-ABPP ratio Q9Y5Y2_C72,"[10]; 200 μM, insitu, ramos",1.1
same,"isoTOP-ABPP ratio (reactivity profile), O00541_C272",O00541_C272; 500 μm in-vitro ramos_231,0.9
C=CC(=O)N(Cc1cccnc1)c1cc(C(F)(F)F)cc(C(F)(F)F)c1 [compound 31],isoTOP-ABPP ratio O75439_C265,"[9]; 200 μM, insitu, 231",1.0
same,isoTOP-ABPP ratio O75439_C265,"[9]; 200 μM, insitu, ramos",1.4
same,isoTOP-ABPP ratio P27707_C9,"[2]; 200 μM, insitu, ramos",1.2
same,isoTOP-ABPP ratio P68366_C54,"[4]; 200 μM, insitu, ramos",1.1
same,isoTOP-ABPP ratio Q14790_C360,[6]; 231,0.5
